For 89 compounds, AC50 results are on record in PubChem BioAssay AID463199 (Broad Institute, 2010).

Calls of active or inactive are those of the source.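 How the source made its calls: active means AC50, the dose giving half-maximal effect, exceeds a fixed cutoff for a compound that rescues yeast growth under heat; inactive means the rest, inconclusive results apart.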

For this experiment, the system named is S. cerevisiae Burl-1 ts mutant growth, BacTiter-Glo, 38.5C 24 h. The experiment can be described thus: restored growth of temperature-sensitive Burl-1 yeast – whole organism, S. cerevisiae, Burl-1 ts mutant, luminescence, counter-screen for SUMOylation pathway inhibitor project, dose response (AID 463199).
A word on the AC50: it is the concentration giving half of the maximal activity seen. Regarding `COc1cccc(CNC(=O)CCCn2nc(C)c3c(C)n(-c4ccccc4)nc3c2=O)c1`, the AC50 was > 42 µM (inactive).

As for `Cc1ccc(C(=O)Nc2ccc3c(c2)OCCO3)c(Cl)c1`, the AC50 was > 42 µM (inactive).

As to `COC(=O)CN(C(=S)Nc1ccc(F)cc1)C1CC(=O)N(c2ccccc2)C1=O` (centres undefined), the AC50 is > 42 µM (inactive).

As for `Cc1cc(C(F)(F)F)nc(SCC(=O)Nc2cc(C)on2)n1`, the AC50 is > 42 µM (inactive).

For the compound `COc1ccc2oc(=O)c(C(=O)NCc3ccco3)cc2c1`, the AC50 is 15.5 µM.

With `CCn1nc(CC(=O)Nc2ccc(-n3cnnn3)c(C)c2)c2ccccc2c1=O`, the AC50 was > 42 µM (inactive).

As for `C[C@]12CC[C@H]3C(=CCc4cc(O)ccc43)[C@@H]1CCC2=O`, the AC50 is > 42 µM (inactive).

For `O=c1[nH]cnc2ccc([N+](=O)[O-])cc12`, the AC50 is > 42 µM (inactive).

In the case of `Cc1cc(C)cc(OC(=O)CS(=O)c2ccc(C(F)(F)F)cc2[N+](=O)[O-])c1` (centres undefined), the AC50 is > 42 µM (inactive).

For `CC1=CS(=O)(=O)CC1Sc1ncn[nH]1` (centres undefined), the AC50 is > 42 µM (inactive).

For the compound `COCCn1c(=O)[nH]c(=O)c2cc(C(=O)c3cc(Cl)ccc3O)cnc21`, the AC50 is > 42 µM (inactive).

For `CCN=C1S/C(=C/c2ccc(-c3ccc(F)cc3)o2)C(=O)N1CC`, the AC50 was > 42 µM (inactive).

As for `C/C(=N/Nc1ccc(F)cc1)c1ccc(Cl)s1`, the AC50 is > 42 µM (inactive).

With `CN(C)c1ccc2nc3ccc(=[N+](C)C)cc-3sc2c1`, the AC50 is > 42 µM (inactive).

Regarding `N#Cc1c(-c2ccco2)cc(-c2cccnc2)nc1N`, the AC50 was > 42 µM (inactive).

Turning to `COc1ccc2c(c1)OC[C@H]1[C@H]2N2C(=O)c3cc(Br)ccc3NC(=O)[C@@]2(C)[C@H]1c1ccccc1`, the AC50 was > 42 µM (inactive).

On to `O=c1[nH]c(=O)n(C2CCCO2)cc1Br` (centres undefined), for which the AC50 is > 42 µM (inactive).

As for `CNc1csc(C)c(C)c1=O`, the AC50 is > 42 µM (inactive).

Regarding `CC1c2cc3c(cc2CCN1CC(=O)Nc1ccccc1)OCCCO3` (centres undefined), the AC50 is > 42 µM (inactive).

For `Cc1cccc(N(C(=O)c2ccc(CN3CCOCC3)o2)C(C(=O)NC2CCCCC2)c2ccc(F)cc2)c1` (centres undefined), the AC50 is > 42 µM (inactive).

Take `CC(C(=O)NCCN1CCOCC1)(c1ccccc1)c1ccccc1`: the AC50 is > 42 µM (inactive).

`Cc1nc(-c2cccc(S(=O)(=O)N3CCOCC3)c2)cs1`: the AC50 is > 42 µM (inactive).

As to `Cc1ccc(C(=O)/C=C/Nc2ccccc2C(N)=O)cc1`, the AC50 was > 42 µM (inactive).

For `CCCNC(=O)COC(=O)CCC(=O)c1cccs1`, the AC50 is > 42 µM (inactive).

For `Cc1cc2c(C)ccc(C)c2nc1SCC(=O)c1cccs1`, the AC50 is > 42 µM (inactive).

Turning to `CS(=O)(=O)N(CC(=O)N1CCN(c2ccccc2F)CC1)C1CCCCC1`, the AC50 is > 42 µM (inactive).

For the compound `O=C1CN(C(=O)COC(=O)c2ccccc2NCc2ccco2)c2ccccc2N1`, the AC50 is > 42 µM (inactive).

Consider `CN1CCN(CC(=O)N2c3ccccc3C(=O)Nc3cccnc32)CC1`, for which the AC50 was > 42 µM (inactive).

On to `c1ccc(-c2csc(NC3CCCCC3)n2)cc1`, for which the AC50 was > 42 µM (inactive).

Regarding `COCC(=O)n1nc(-c2ccccc2)nc1NCc1ccc(N(C)C)cc1`, the AC50 was > 42 µM (inactive).

On to `O=C(O)CN(c1ccccn1)S(=O)(=O)c1ccc(Cl)cc1`, for which the AC50 was > 42 µM (inactive).

As to `CCOC(=O)N1CCN(C(=O)CNC(=O)c2nn(-c3ccc(OC)c(OC)c3)c(=O)c3ccccc23)CC1`, the AC50 was > 42 µM (inactive).

With `COc1ccccc1NC(=O)COC(=O)CC(C)(C)CC1=NS(=O)(=O)c2ccccc2N1`, the AC50 is > 42 µM (inactive).

For the compound `COc1ccccc1C(=O)OCC(=O)NC(=O)NCc1ccccc1`, the AC50 is > 42 µM (inactive).

With `Fc1cccc(Cl)c1CSc1nnc(CN2CCOCC2)n1-c1ccccc1`, the AC50 was > 42 µM (inactive).

As to `CCCCCCOc1ccc(N2C(=O)CC(N3CCC(C(=O)OCC)CC3)C2=O)cc1` (centres undefined), the AC50 was > 42 µM (inactive).

On to `COc1cc2nc(CSc3ncn[nH]3)[nH]c(=O)c2cc1OC`, for which the AC50 was > 42 µM (inactive).

As for `O=C(O)c1ccc(COc2c(F)c(F)cc(F)c2F)cc1`, the AC50 is > 42 µM (inactive).

In the case of `CCOC(=O)c1[nH]c2ccc(Br)cc2c1NC(=O)CCN1CCOCC1`, the AC50 is > 42 µM (inactive).

`COc1ccc(N(CC(=O)NCc2ccc(C)cc2)S(=O)(=O)c2c(C)nn(C)c2C)cc1`: the AC50 is > 42 µM (inactive).

As for `COC(=O)c1c(C)cc(O)c(C=O)c1O`, the AC50 is > 42 µM (inactive).

With `CC(=O)Nc1ccc(S(=O)(=O)Nc2cccc(-c3ccc4nncn4n3)c2)cc1`, the AC50 was > 42 µM (inactive).

Regarding `CCCc1nc2c(nnn2Cc2ccccc2F)c(=O)[nH]1`, the AC50 was > 42 µM (inactive).

In the case of `CCCOC(=O)C1=C(C)NC2=C(C(=O)CCC2)C1c1cccs1` (centres undefined), the AC50 is > 42 µM (inactive).

As for `Oc1cccc(/C=N/N2CCN(c3ccccn3)CC2)c1`, the AC50 is > 21 µM (inactive).

With `O=C1CN(C(=O)COC(=O)c2cccc(S(=O)(=O)NCc3ccccc3)c2)c2ccccc2N1`, the AC50 is > 42 µM (inactive).

Consider `N#C/C(=C\c1c(N(Cc2ccccc2)Cc2ccccc2)nc2ccccn2c1=O)C(N)=O`, for which the AC50 is > 42 µM (inactive).

Turning to `COc1cc2cc(C)c3nnc(SCC(=O)Nc4cc(C)on4)n3c2cc1OC`, the AC50 is > 42 µM (inactive).

In the case of `CC1CC(c2ccccc2)NS(=O)(=O)O1` (centres undefined), the AC50 was > 42 µM (inactive).

As to `COc1ccccc1CNC(=O)C(C)Sc1ccc(C)cc1` (centres undefined), the AC50 is > 42 µM (inactive).

In the case of `CC1CCN(CCNC(=O)C2CCCN(S(=O)(=O)c3cccc4nsnc34)C2)CC1` (centres undefined), the AC50 was > 42 µM (inactive).

In the case of `O=S(=O)(Cc1cc(-c2ccccc2)no1)c1ccccc1`, the AC50 is > 42 µM (inactive).

In the case of `Cn1nc(C(C)(C)C)c([N+](=O)[O-])c1C(=O)Nc1ccccc1`, the AC50 was > 42 µM (inactive).

As to `Cc1[nH]oc(=O)c1N=Nc1ccccc1`, the AC50 is > 42 µM (inactive).

For `CN(C)CCNC(=O)c1onc(CSc2ccc(F)c(F)c2)c1C(=O)NCCN(C)C`, the AC50 is > 42 µM (inactive).

For the compound `O=C1COc2ccc(C(=O)COC(=O)c3ncc(Cl)c(Cl)c3Cl)cc2N1`, the AC50 is > 42 µM (inactive).

Consider `COc1ccc(-c2cc(CC3(C(=O)O)CCN(C(=O)OC(C)(C)C)CC3)on2)c(OC)c1`, for which the AC50 is > 42 µM (inactive).

Regarding `Cc1noc(C)c1Cc1ccc(O)cc1`, the AC50 was > 42 µM (inactive).

In the case of `CC(C)Sc1ccc(C(=O)Nc2ccc(F)cc2F)cn1`, the AC50 is > 42 µM (inactive).

Consider `CC(C)[C@H](NC(=O)C1(c2ccccc2)CCN(C(=O)OC(C)(C)C)CC1)C(=O)O`, for which the AC50 is > 42 µM (inactive).

On to `COc1ccc(-c2csc(NC(=O)C3CSC4(C)CCC(=O)N34)n2)cc1` (centres undefined), for which the AC50 is > 42 µM (inactive).

Regarding `Cc1ccc(S(=O)(=O)N2c3ccc(S(N)(=O)=O)cc3CC2C)cc1` (centres undefined), the AC50 was > 42 µM (inactive).

For `O=S(=O)(CCN1CCCCC1)Oc1ccc(Cl)cc1Cl`, the AC50 was > 42 µM (inactive).

`O=C(CCSc1nnnn1-c1ccccc1)N1CCOCC1`: the AC50 is > 42 µM (inactive).

On to `COc1cccc(NC(=O)CN2CCN(c3ccccc3F)CC2)c1`, for which the AC50 was > 42 µM (inactive).

As to `Cc1sc2ncnc(N3CCC(C(=O)NNC(=O)COc4ccccc4F)CC3)c2c1C`, the AC50 was > 42 µM (inactive).

As to `CCCCOC(=O)/C(=C/C=C/c1ccccc1)NC(=O)c1ccccc1`, the AC50 was > 42 µM (inactive).

For `COC(=O)C(NC(C)=O)(Nc1nc2ccc(S(C)(=O)=O)cc2s1)C(F)(F)F` (centres undefined), the AC50 is > 42 µM (inactive).

For `Nc1nc(-c2ccc(Cl)cc2)nc(-c2ccc(Cl)cc2)n1`, the AC50 was > 42 µM (inactive).

`O=C(CSc1nc(-c2ccccc2)cc(=O)[nH]1)Nc1ccc(Br)cc1`: the AC50 was > 42 µM (inactive).

Consider `CN(CP(=O)(O)C(O)c1ccccc1)S(C)(=O)=O` (centres undefined), for which the AC50 is > 42 µM (inactive).

`O=C(N/N=C/c1ccccn1)NC12CC3CC(CC(C3)C1)C2`: the AC50 was > 42 µM (inactive).

Take `O=C(NCc1csc(-c2cccs2)n1)Nc1ccc(F)cc1F`: the AC50 was > 42 µM (inactive).

`COC(=O)C1C2C=CC3(CN(CCc4ccccc4)C(=O)C13)O2` (centres undefined): the AC50 is > 21 µM (inactive).

Regarding `Clc1ccc(CSc2nnc(CN3CCOCC3)n2-c2ccccc2)cc1Cl`, the AC50 is > 42 µM (inactive).

As to `O=C(Nc1ccc(S(=O)(=O)NC2=NCCCCC2)cc1)c1ccc(C(F)(F)F)cc1`, the AC50 was > 42 µM (inactive).

Take `O=C(NC1CCCCC1)N(Cc1cc2cc3c(cc2[nH]c1=O)OCCO3)C1CCCCC1`: the AC50 was > 42 µM (inactive).

With `COc1ccc(CN(C)S(=O)(=O)c2nnc(NC(=O)c3ccc(C)cc3)s2)cc1OC`, the AC50 is > 42 µM (inactive).

For `COc1ccc(C(=O)CC(=O)C(=O)Nc2ccc(C)c(C)c2)cc1`, the AC50 is > 42 µM (inactive).

For the compound `CCc1nc2ccccc2c(C(=O)OC2CCCCC2=O)c1C` (centres undefined), the AC50 was > 42 µM (inactive).

Take `Cn1c(CN2CCOCC2)nnc1SCC(N)=O`: the AC50 was > 42 µM (inactive).

For the compound `Cc1ccc(C(C(=O)NCC2CCCO2)N(Cc2ccccc2F)C(=O)Cn2nnc(-c3cccs3)n2)cc1` (centres undefined), the AC50 is > 42 µM (inactive).

Take `COC(=O)c1cc2occc2n1Cc1nc(-c2ccccc2C)oc1C`: the AC50 is > 42 µM (inactive).

As to `Cc1ccc(C(=O)NCC(=O)Nc2ccc3c(c2)OCCO3)cc1`, the concentration at half-maximal activity (AC50) is 18.5 µM.

On to `CN(C)/C=N/NC(=O)c1ccccc1`, for which the AC50 is > 42 µM (inactive).

For the compound `O=C(COC(=O)c1cccc(Br)c1)Nc1ccc2[nH]c(=O)[nH]c2c1`, the AC50 was > 42 µM (inactive).

`CCN(CC)c1nc2c(c(=O)[nH]c(=O)n2C)n1CCOc1ccccc1`: the AC50 was > 42 µM (inactive).

Regarding `Cc1ccccc1Nc1cc(=O)oc2ccccc12`, the AC50 is > 42 µM (inactive).

On to `CCCCNS(=O)(=O)c1ccc2c(c1)oc(=O)n2CC(=O)OCC`, for which the AC50 is > 42 µM (inactive).
